The conditions of data set [1]: literature, cited from earlier work.
The conditions of data set [2]: literature; cited from earlier work.
Data set [3] concerns Spontaneously hypertensive male rats. As to the kind of experiment: Antihypertensive activity in spontaneously hypertensive rats (oral, 10 successive days). The following applies: for Fall in blood pressure / Blood pressure: 10 mg/kg/day p.o. It counts as in vivo, rat. The method, then: Spontaneously hypertensive male rats [SHR, Jap. Circ. J. 27, 282-93 (1963)] being 18-23 weeks of age and having systolic blood pressure levels of 170-190 mmHg were used. The test compounds were each suspended in a 0.5% aqueous tragacanth solution and administered orally in a dose of 10 mg/kg/day by stomach tube to SHR once a day for 10 successive days. The blood pressure of conscious SHR was measured prior to dosing and 5 hours after administration. It was also measured once daily over a period of 7 days after the end of the treatment period. The measurement of the blood pressure was made by a plethysmographtail method [Jap. Circ. J. 27, 282-93 (1963)].

Data set [4] relates to Male Wistar rats. As to the kind of experiment: Effect on urine volume and electrolyte excretion. It counts as in vivo, rat. On the procedure:
Male Wistar rats weighing 220 to 260 g were used. Each test compound was suspended in a solution of tragacanth dissolved in a concentration of 0.5% in a 0.9% saline solution so that the volume of the resulting suspension to be administered would be always 25 ml/Kg. The test compounds were administered orally by the stomach tube to the animals at the prescribed doses. The animals were then placed in a metabolic cage and the urine was collected over a period of 5 hours. The total amount of sodium, potassium and chloride excreted was determined by Auto-Analyzer, made by Technicon Instruments Corporation.

Data set [5] concerns Male Wistar rats. Description: Effect on blood glucose (a), oral. Particulars: 300 mg/kg p.o.
Description: (a) Male Wistar rats weighing 190-210 g were used. Each test compound was suspended in a concentration of 150 mg/ml in a 0.5% aqueous tragacanth solution and orally administered at a dose of 300 mg/kg by the stomach tube.
Data set [6] concerns Male Wistar rats. Description: Effect on blood glucose (b), intraperitoneal. The following applies: 300 mg/kg i.p.
Description: (b) Male Wistar rats weighing 260-285 g were used. […] 4 ml/kg of the above solution of each test compound was intraperitoneally administered to each animal. The blood samples were taken prior to dosing and 1, 3 and 6 hours after the administration and the plasma glucose levels were determined in a similar manner to that described in (a).
[7] abbreviates: day 0, 5 hours after administration.
Where [8] appears, read: day 2, 5 hours after administration.
The mark [9] stands for this setting: day 4, 5 hours after administration.
Where [10] appears, read: day 6, 5 hours after administration.
Setting [11] is: day 8, 5 hours after administration.
The mark [12] stands for this setting: day 10, 24 hours after the final treatment.
Where [13] appears, read: day 14, 120 hours after the final treatment.
The mark [14] stands for this setting: 100 mg/kg p.o., urinary excretion over 5 hours.

Data on six compounds can be found in patent US4029780A, “3-Piperazinyl 1,2,4-benzothiadiazine 1,1-dioxide derivatives their compositions and method of use” (Dainippon Pharmaceutical Co., Ltd., priority 1974, dated 1977).

Take `O=S1(=O)NC(N2CCOCC2)=Nc2cc(C(F)(F)F)ccc21` [3-morpholino-6-trifluoromethyl-2H-1,2,4-benzothiadiazine 1,1-dioxide]: in data set [1], the Antihypertensive activity entry is given as “no antihypertensive activity”.

As for `NC1=Nc2cc(C(F)(F)F)ccc2S(=O)(=O)N1` [6-trifluoromethyl-3-amino-2H-1,2,4-benzothiadiazine 1,1-dioxide], the Antihypertensive activity result in data set [1] is “substantially the same degree of antihypertensive activity as diazoxide”. Further, the Antidiuretic activity entry in data set [2] was “antidiuretic activity similar to that of diazoxide”.

As for `COc1cc2c(cc1OC)S(=O)(=O)NC(N1CCN(C)CC1)=N2` [Compound 1, 6,7-Dimethoxy-3-(4-methyl-1-piperazinyl)-2H-1,2,4-benzothiadiazine 1,1-dioxide], the “Fall in blood pressure” value in data set [3] is “did not cause any significant fall in blood pressure”. Moreover, the Blood pressure came out at 188 mm Hg in data set [3] (setting [7]); 189 mm Hg in data set [3] (day 0, prior to dosing (0)); 186 mm Hg in data set [3] (setting [8]); 187 mm Hg in data set [3] (day 2, prior to dosing (0)); 184 mm Hg in data set [3] (setting [9]); 185 mm Hg in data set [3] (day 4, prior to dosing (0)). The Blood pressure is recorded as 184 mm Hg in data set [3] (setting [10]); 187 mm Hg in data set [3] (day 6, prior to dosing (0)); 187 mm Hg in data set [3] (setting [11]); 189 mm Hg in data set [3] (day 8, prior to dosing (0)); 187 mm Hg in data set [3] (setting [12]); 188 mm Hg in data set [3] (setting [13]). Besides, in data set [1], the Antihypertensive activity result is “no antihypertensive activity”.

Regarding `O=S1(=O)NC(N2CCCCC2)=Nc2ccccc21` [Compound 2, 3-Piperidino-2H-1,2,4-benzothiadiazine 1,1-dioxide], in data set [3], the “Fall in blood pressure” value is listed as “did not cause any significant fall in blood pressure”. The Blood pressure in data set [3] (setting [7]) was 180 mm Hg; in data set [3] (day 0, prior to dosing (0)) it was 187 mm Hg; in data set [3] (setting [8]), 181 mm Hg; in data set [3] (day 2, prior to dosing (0)) it was 186 mm Hg; in data set [3] (setting [9]), 183 mm Hg; in data set [3] (day 4, prior to dosing (0)), 182 mm Hg. Besides, the Blood pressure was 186 mm Hg in data set [3] (setting [10]); 186 mm Hg in data set [3] (day 6, prior to dosing (0)); 183 mm Hg in data set [3] (setting [11]); 186 mm Hg in data set [3] (day 8, prior to dosing (0)); 184 mm Hg in data set [3] (setting [12]); 182 mm Hg in data set [3] (setting [13]). In addition, the “Antihypertensive activity in oral administration” value in data set [3] (oral) is “does not show antihypertensive activity”. In data set [1] (intravenous), the “Antihypertensive activity in intravenous administration” value is “slight antihypertensive activity”.

For `NS(=O)(=O)c1cc2c(cc1Cl)NCNS2(=O)=O` [Compound 4, Hydrochlorothiazide], the Blood pressure is 168 mm Hg in data set [3] (setting [7]); 172 mm Hg in data set [3] (day 0, prior to dosing (0)); 152 mm Hg in data set [3] (setting [8]); 163 mm Hg in data set [3] (day 2, prior to dosing (0)); 150 mm Hg in data set [3] (setting [9]); 158 mm Hg in data set [3] (day 4, prior to dosing (0)). Besides, the Blood pressure is 138 mm Hg in data set [3] (setting [10]); 151 mm Hg in data set [3] (day 6, prior to dosing (0)); 140 mm Hg in data set [3] (setting [11]); 152 mm Hg in data set [3] (day 8, prior to dosing (0)); 153 mm Hg in data set [3] (setting [12]); 165 mm Hg in data set [3] (setting [13]). The “Change in Na+/K+” value in the data set on Male Wistar rats [4] (1 mg/kg p.o.) is reported as “marked increase”. This compound had a Cl- with Male Wistar rats [4] (1.0 mg/kg p.o., urinary excretion over 5 hours) of 1.38 mEq. The Blood glucose in the data set with Male Wistar rats [5] (0 hr (prior to dosing)) came out at 104 mg/dL; with Male Wistar rats [5] (1 hr), 114 mg/dL; with Male Wistar rats [5] (3 hr) it was 111 mg/dL; in the data set on Male Wistar rats [5] (6 hr) it was 112 mg/dL; in the data set with Male Wistar rats [5] (10 hr), 113 mg/dL; with Male Wistar rats [6] (0 hr (prior to dosing)), 100 mg/dL. The Blood glucose in the data set with Male Wistar rats [6] (1 hr) was 257 mg/dL; in the data set with Male Wistar rats [6] (3 hr) it was 220 mg/dL; in the data set on Male Wistar rats [6] (6 hr) it was 144 mg/dL.

Turning to `CN1CCN(C2=Nc3ccccc3S(=O)(=O)N2)CC1` [Compound B, 3-(4-methyl-1-piperazinyl)-2H-1,2,4-benzothiadiazine 1,1-dioxide], the Blood pressure is on record as 167 mm Hg in data set [3] (setting [7]); 169 mm Hg in data set [3] (day 0, prior to dosing (0)); 161 mm Hg in data set [3] (setting [8]); 167 mm Hg in data set [3] (day 2, prior to dosing (0)); 154 mm Hg in data set [3] (setting [9]); 159 mm Hg in data set [3] (day 4, prior to dosing (0)). The Blood pressure in data set [3] (setting [10]) stood at 144 mm Hg; in data set [3] (day 6, prior to dosing (0)), 160 mm Hg; in data set [3] (setting [11]) it was 136 mm Hg; in data set [3] (day 8, prior to dosing (0)), 149 mm Hg; in data set [3] (setting [12]), 146 mm Hg; in data set [3] (setting [13]), 166 mm Hg. For the same compound, the “Change in electrolyte excretion” value in the data set with Male Wistar rats [4] (100 mg/kg p.o.) is “no significant change”. The “Change in urine volume” value with Male Wistar rats [4] (100 mg/kg p.o.) is recorded as “no significant change”. Moreover, the Urine volume in the data set on Male Wistar rats [4] (100 mg/kg p.o., 5 hours) is 3.06 mL. In the data set on Male Wistar rats [4] (setting [14]), the Cl- is 0.89 mEq. The “K+” value with Male Wistar rats [4] (setting [14]) is on record as 0.48 mEq. Besides, the “Na+” value in the data set on Male Wistar rats [4] (setting [14]) is 0.64 mEq. In the data set with Male Wistar rats [4] (setting [14]), the “Na+/K+” value is given as 1.34. For the same compound, the Blood glucose with Male Wistar rats [5] (0 hr (prior to dosing)) came to 106 mg/dL; with Male Wistar rats [5] (1 hr), 107 mg/dL; in the data set on Male Wistar rats [5] (3 hr), 109 mg/dL; in the data set with Male Wistar rats [5] (6 hr), 104 mg/dL; in the data set on Male Wistar rats [5] (10 hr) it was 110 mg/dL; with Male Wistar rats [6] (0 hr (prior to dosing)), 100 mg/dL. Besides, the Blood glucose with Male Wistar rats [6] (1 hr) was determined as 111 mg/dL; in the data set on Male Wistar rats [6] (3 hr), 115 mg/dL; in the data set with Male Wistar rats [6] (6 hr) it was 125 mg/dL. Besides, the “Effect on blood glucose level” value in the data set with Male Wistar rats [5] (rats) and in the data set on Male Wistar rats [6] (rats) was “substantially no effect” in each case.
